# Measured values: patent US20260183297A1, “SELECTION OF PATIENTS FOR THE TREATMENT OF FADS1-MEDIATED DISEASES OR DISORDERS USING FADS-1 INHIBITORS” (AMGEN INC., priority 2022, published 2026)
# “Also recorded” adds a separate entry of the source. Marks after values point to notes of the source that are not given here.
# Key:
# [1] = Fatty acid concentration and composition of plasma lipid subfractions (GC) of Compound A-treated DIO mice; type: in vivo; conditions: DIO mouse plasma, 30 mg/kg, mean
# [2] = Liver triglyceride measurement; type: in vivo, mouse; conditions: DIO mice, 8 weeks of 10 or 30 mg/kg
# Description: Liver total lipids were homogenized and extracted using chloroform methanol solution at a ratio of 2:1. Extracted lipids were dried under nitrogen gas and suspended in 90% isopropanol, 10% Triton X-100 solution. Liver triglyceride levels in mg/g tissue were determined using total triglyceride measurement kits from Wako Diagnostics (Richmond, VA) and Sigma-Aldrich (Burlington, MA).
# mouse FADS1 = target: T1, mouse FADS1 (Mus musculus, UniProt Q920L1); assay: Mouse FADS1 cell-based assay; conditions: in vitro; read-out: half-maximal inhibitory concentration (IC50) against mouse FADS1
# T1 sequence (Q920L1 1-447): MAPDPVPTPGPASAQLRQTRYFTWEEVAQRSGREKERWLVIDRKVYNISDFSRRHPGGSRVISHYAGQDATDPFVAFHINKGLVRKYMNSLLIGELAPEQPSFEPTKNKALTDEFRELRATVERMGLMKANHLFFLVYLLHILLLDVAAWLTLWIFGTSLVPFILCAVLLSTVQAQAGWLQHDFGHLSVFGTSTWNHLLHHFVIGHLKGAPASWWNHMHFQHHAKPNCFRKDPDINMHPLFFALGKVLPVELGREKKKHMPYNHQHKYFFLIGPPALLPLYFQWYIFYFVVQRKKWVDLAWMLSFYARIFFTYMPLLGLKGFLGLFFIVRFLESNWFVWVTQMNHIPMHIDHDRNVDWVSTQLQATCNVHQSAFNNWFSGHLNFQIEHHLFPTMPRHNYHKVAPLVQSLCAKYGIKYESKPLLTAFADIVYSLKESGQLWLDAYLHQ
# Description: HEK 293 cells in Dulbecco's Modified Eagle's medium (DMEM), 10% fetal bovine serum (FBS), 1× penicillin-streptomycin-glutamine (PSG) were mixed with FADS1 BacMam or FADS2 BacMam reagents at multiplicity of infection (MOI) ratio of 25 and plated in a in 96-well poly-D-lysine-coated plate. Plates were incubated in a 37° C., 5% CO2 for 24 hours. Cells were washed with DPBS and cells were incubated with […] of compound dilution in DPBS at 5% CO2, 37° C. for 20 minutes. Ten L of the substrate, ^13C5-DGLA (FADS1), or 13C-LA (FADS2) diluted in DPBS were added to the cells and incubated at 5% CO2, 37° C. for 30 minutes (FADS1) or 45 minutes (FADS2). Cells were then washed with DPBS and 50 μL of 2N NaOH were added to each well and incubated in a 65° C. oven for 1 hour for the saponification reaction. After cooling to room temperature, 22 μl of formic acid was added followed by the addition of 113 μl of acetonitrile with 1.5 μM ALA-d14 as the internal standard. Samples were then subjected to LC-MS/MS detection for the following analytes for the FADS1 reaction: ^13C5-DGLA and ^13C5-AA or the following analytes for the FADS2 reaction: ^13C18-LA, ^13C18-GLA, ^13C18-DGLA and ^13C18-AA. […]
# The analyte peak areas were quantified by using the Analyst software (SCIEX, Framingham, MA). The percent of substrate to product conversion relative to untreated control were calculated (percent of control [POC]). […]
# [3] = Plasma PUFA measurement (LC-MS/MS); type: in vivo, mouse; conditions: for FADS1 activity 20:4n-6/20:3n-6 / FADS2 activity 18:3n-6/18:2n-6: DIO mice plasma ratio; for FADS1 activity 20:4n-6/20:3n-6 / FADS2 activity 18:3n-6/18:2n-6 / Adrenic acid 22:4 n-6 / Alpha-Linolenic acid 18:3 n-3 / Arachidonic acid 20:4 n-6 / Dihomo-gamma-Linolenic acid 20:3 n-6 / Docosahexaenoic acid 22:6 n-3 / Eicosapentaenoic acid 20:5 n-3 / Eicosatetraenoic acid 20:4 n-3 / Gamma-Linoleic acid 18:3 n-6 / Linoleic acid 18:2 n-6: mean ± SD; for Adrenic acid 22:4 n-6 / Alpha-Linolenic acid 18:3 n-3 / Arachidonic acid 20:4 n-6 / Dihomo-gamma-Linolenic acid 20:3 n-6 / Docosahexaenoic acid 22:6 n-3 / Eicosapentaenoic acid 20:5 n-3 / Eicosatetraenoic acid 20:4 n-3 / Gamma-Linoleic acid 18:3 n-6 / Linoleic acid 18:2 n-6: DIO mice plasma; for Adrenic acid AdA 22:4 n-6 / Arachidonic acid AA 20:4 n-6 / Decosahexaenoic acid DHA 22:6 n-3 / Dihomo-γ-Linolenic acid DGLA 20:3 n-6 / Eicosapentaenoic acid EPA 20:5 n-3 / Eicosatetraenoic acid ETA 20:4 n-3 / Linoleic acid LA 18:2 n-6 / α-Linolenic acid ALA 18:3 n-3 / γ-Linoleic acid GLA 18:3 n-6: plasma of Compound A-treated mice; for FADS1 activity AA/DGLA 20:4n-6/20:3n-6 / FADS2 activity GLA/LA 18:3n-6/18:2n-6: plasma ratio, Compound A-treated mice
# Description: Ten microliter of plasma or PUFA standards diluted in surrogate matrix (60 g/l bovine serum albumin in Dulbecco's phosphate-buffered saline [DPBS]) were mixed with 10 μl of ALA-d14 as the internal stand in a 96-well plate. 100 μl of 2N NaOH was added to the mixture for subsequent saponification at 65° C. for 1 hour. The mixture was then acidified with 50 μl of formic acid followed by two consecutive 500 μl hexane extractions. The organic extracts from the two extractions were combined and the solvent was evaporated under nitrogen gas. […] The PUFA peak areas were quantified by using the Analyst software (SCIEX, Framingham, MA).
# [4] = Chronic FADS1 inhibition study in DIO mice (body weight, food intake); type: in vivo, mouse; conditions: for lower body weight relative to vehicle-treated mice: 54 days
# Description: Body weight was measured daily and used for dosing calculations. A 4-hour fasted retro-orbital blood sample was collected at baseline and day 46 and used for insulin, cholesterol, and triglyceride analysis. A 3-day average food consumption was measured on days 39-41. All animals received 0.1 ml of 2 mM ^13C5-DGLA by IP injection 23.5 hours after the last PO gavage with the different treatment to allow for 30 minutes of exposure prior to necropsy to determine the residual in vivo FADS1 activity.
structure (smiles),measurement,setting,value
"COc1ccn2c(=O)c(-c3cnn(CC(F)(F)C(F)(F)F)c3)c(C(F)(F)F)nc2c1 [Compound A, 8-methoxy-3-(1-(2,2,3,3,3-pentafluoropropyl)-1H-pyrazol-4-yl)-2-(trifluoromethyl)-4H-pyrido[1,2-a]pyrimidin-4-one]","C20:4n6 concentration, Cholesterol ester",[1]; Cholesterol ester,72.4*** μg mL^−1
same,"C16:1n7t concentration, Phospholipids",[1]; Phospholipids,1.2 µg/mL
same,"C16:1n7t concentration, Total",[1]; Total lipids,3.0 µg/mL
same,"C20:2n6 concentration, Total",[1]; Total lipids,9.9 µg/mL
same,"C24:0 concentration, Total",[1]; Total lipids,1.9 µg/mL
same,hepatic triglyceride content,[2],No apparent increase
same,IC50,mouse FADS1,4 nM
same,FADS1 activity 20:4n-6/20:3n-6,"[3]; 10 mg kg^−1, 46 or 54 days",0.06 ± 0.01
same,FADS2 activity 18:3n-6/18:2n-6,"[3]; 10 mg kg^−1, 46 or 54 days",0.018 ± 0.002
same,FADS1 activity 20:4n-6/20:3n-6,"[3]; 30 mg kg^−1, 46 or 54 days",0.05 ± 0.01
same,FADS2 activity 18:3n-6/18:2n-6,"[3]; 30 mg kg^−1, 46 or 54 days",0.014 ± 0.003
same,Adrenic acid 22:4 n-6,"[3]; 10 mg kg^−1, 46 or 54 days",1.0 ± 0.1 µg/mL
same,Alpha-Linolenic acid 18:3 n-3,"[3]; 10 mg kg^−1, 46 or 54 days",0.9 ± 0.3 µg/mL
same,Arachidonic acid 20:4 n-6,"[3]; 10 mg kg^−1, 46 or 54 days",16.1 ± 3.2 µg/mL
same,Dihomo-gamma-Linolenic acid 20:3 n-6,"[3]; 10 mg kg^−1, 46 or 54 days",281.3 ± 34.6 µg/mL
same,Docosahexaenoic acid 22:6 n-3,"[3]; 10 mg kg^−1, 46 or 54 days",93.5 ± 11.8 µg/mL
same,Eicosapentaenoic acid 20:5 n-3,"[3]; 10 mg kg^−1, 46 or 54 days",0.3 ± 0.1 µg/mL
same,Eicosatetraenoic acid 20:4 n-3,"[3]; 10 mg kg^−1, 46 or 54 days",2.5 ± 0.5 µg/mL
same,Gamma-Linoleic acid 18:3 n-6,"[3]; 10 mg kg^−1, 46 or 54 days",3.4 ± 0.4 µg/mL
same,Linoleic acid 18:2 n-6,"[3]; 10 mg kg^−1, 46 or 54 days",198.5 ± 10.5 µg/mL
same,Adrenic acid 22:4 n-6,"[3]; 30 mg kg^−1, 46 or 54 days",0.8 ± 0.1 µg/mL
same,Alpha-Linolenic acid 18:3 n-3,"[3]; 30 mg kg^−1, 46 or 54 days",0.7 ± 0.2 µg/mL
same,Arachidonic acid 20:4 n-6,"[3]; 30 mg kg^−1, 46 or 54 days",12.5 ± 3.0 µg/mL
same,Dihomo-gamma-Linolenic acid 20:3 n-6,"[3]; 30 mg kg^−1, 46 or 54 days",242.3 ± 23.4 µg/mL
same,Docosahexaenoic acid 22:6 n-3,"[3]; 30 mg kg^−1, 46 or 54 days",78.2 ± 11.6 µg/mL
same,Eicosapentaenoic acid 20:5 n-3,"[3]; 30 mg kg^−1, 46 or 54 days",0.3 ± 0.1 µg/mL
same,Eicosatetraenoic acid 20:4 n-3,"[3]; 30 mg kg^−1, 46 or 54 days",1.9 ± 0.4 µg/mL
same,Gamma-Linoleic acid 18:3 n-6,"[3]; 30 mg kg^−1, 46 or 54 days",2.8 ± 0.5 µg/mL
same,Linoleic acid 18:2 n-6,"[3]; 30 mg kg^−1, 46 or 54 days",196.5 ± 24.6 µg/mL
same,Adrenic acid AdA 22:4 n-6,[3]; 10 mg/kg,1.0 ± 0.1 µg/mL
same,Arachidonic acid AA 20:4 n-6,[3]; 10 mg/kg,16.1 ± 3.2 µg/mL
same,Decosahexaenoic acid DHA 22:6 n-3,[3]; 10 mg/kg,93.5 ± 11.8 µg/mL
same,Dihomo-γ-Linolenic acid DGLA 20:3 n-6,[3]; 10 mg/kg,281.3 ± 34.6 µg/mL
same,Eicosapentaenoic acid EPA 20:5 n-3,[3]; 10 mg/kg,0.3 ± 0.1 µg/mL
same,Eicosatetraenoic acid ETA 20:4 n-3,[3]; 10 mg/kg,2.5 ± 0.5 µg/mL
same,Linoleic acid LA 18:2 n-6,[3]; 10 mg/kg,198.5 ± 10.5 µg/mL
same,α-Linolenic acid ALA 18:3 n-3,[3]; 10 mg/kg,0.9 ± 0.3 µg/mL
same,γ-Linoleic acid GLA 18:3 n-6,[3]; 10 mg/kg,3.4 ± 0.4 µg/mL
same,Adrenic acid AdA 22:4 n-6,[3]; 30 mg/kg,0.8 ± 0.1 µg/mL
same,Arachidonic acid AA 20:4 n-6,[3]; 30 mg/kg,12.5 ± 3.0 µg/mL
same,Decosahexaenoic acid DHA 22:6 n-3,[3]; 30 mg/kg,78.2 ± 11.6 µg/mL
same,Dihomo-γ-Linolenic acid DGLA 20:3 n-6,[3]; 30 mg/kg,242.3 ± 23.4 µg/mL
same,Eicosapentaenoic acid EPA 20:5 n-3,[3]; 30 mg/kg,0.3 ± 0.1 µg/mL
same,Eicosatetraenoic acid ETA 20:4 n-3,[3]; 30 mg/kg,1.9 ± 0.4 µg/mL
same,Linoleic acid LA 18:2 n-6,[3]; 30 mg/kg,196.5 ± 24.6 µg/mL
same,α-Linolenic acid ALA 18:3 n-3,[3]; 30 mg/kg,0.7 ± 0.2 µg/mL
same,γ-Linoleic acid GLA 18:3 n-6,[3]; 30 mg/kg,2.8 ± 0.5 µg/mL
same,FADS1 activity AA/DGLA 20:4n-6/20:3n-6,[3]; 10 mg/kg,0.06 ± 0.01
same,FADS2 activity GLA/LA 18:3n-6/18:2n-6,[3]; 10 mg/kg,0.018 ± 0.002
same,FADS1 activity AA/DGLA 20:4n-6/20:3n-6,[3]; 30 mg/kg,0.05 ± 0.01
same,FADS2 activity GLA/LA 18:3n-6/18:2n-6,[3]; 30 mg/kg,0.014 ± 0.003
same,decrease of AA/DHA ratio,"[3]; plasma, Compound A-treated mice (Table 6.1)",five-fold
same,lower body weight relative to vehicle-treated mice,[4]; 10 mg/kg daily oral,17.9%
same,lower body weight relative to vehicle-treated mice,[4]; 30 mg/kg daily oral,21.1%
same,food intake,[4]; 10 and 30 mg/kg daily oral,without affecting food intake; also recorded: No significant differences
